The values below come from patent USRE35281E, “Tetrazole derivatives and aldose reductase inhibition therewith” (Wakamoto Pharmaceutical Co., Ltd., priority 1989, dated 1996).

Structures are written as SMILES. Some results are limits rather than exact numbers.

The first data set addresses T1, aldose reductase (Rattus norvegicus, UniProt P07943).
T1 construct: their crystalline lenses were immediately removed and stored at -80° C; The lenses were homogenized; from tissue; host or cells: crystalline lens of six-week-old male SD rats (homogenate supernatant, dialysed)
The data set can be described thus: Aldose Reductase Inhibition Test (Experiment 1). It counts as biochemical, rat (male SD rat crystalline lens). Conditions: *Concentration of 10^-6 M; DL-glycerine aldehyde 10 mM, pH 6.2, 30° C., 5 min. The method, then: Six-week-old male SD rats were killed under ether anesthesia and their crystalline lenses were immediately removed and stored at -80° C. The lenses were homogenized in 3 volumes of 135 mM sodium potassium phosphate buffer (pH: 7.0) and centrifuged at a rate of 30,000 rpm for 30 min. The supernatant was dialyzed overnight against 0.05M sodium chloride, to produce an aldose reductase solution. All operations were conducted at 4° C. The enzyme solution was stored at -80° C.
(§1) The activity of aldose reductase was determined according to a slight modification of the method of J. H. Kinoshita et al [J. Biol. Chem., 240, 877 (1965)]. Namely, 0.1 ml of DL-glycerine aldehyde (final concentration: 10 mM) was added to 0.9 ml of 100 mM sodium potassium phosphate buffer (pH 6.2) which contained lithium sulfate (final concentration: 400 mM), reduced nicotinamide adenine dinucleotide phosphate (final concentration: 0.15 mM), the enzyme solution, and the compound to be tested (final concentration: 5×10^-5 M or 10^-6 M), and then the reaction was conducted at 30° C. for 5 min. […] The maximum reducing rate of the absorbance (U) during the reaction was determined. By substracting, from this value, the maximum reducing rate (Uo) at 340 nm of the reaction solution before the addition of the substrate (DL-glycerine aldehyde), the reaction rate (V) (V=U-Uo) was calculated as a true reaction rate in the presence of the compound to be tested.
(§2) The same procedure was repeated except for the absence of the compound to be tested. A true reaction rate (Vo) in case the enzyme was not inhibited was calculated (Vo =U'-Uo '). The inhibitory activity of aldose reductase was determined by the following formula. [formula]
For the compound `O=C(O)Cn1nnnc1-c1ccc(-c2ccccc2)cc1` [Compound 3-23, 5-(4-Biphenylyl)-1-tetrazoleacetic acid], the inhibition at 1 µM turned out to be 95%.

`O=C(O)Cn1nnnc1-c1ccccc1` [Compound 3-1, 5-Phenyl-1-tetrazoleacetic acid] registered an inhibition at 1 µM of 97%.

For `CCCCOc1ccc(-c2nnnn2CC(=O)O)cc1` [Compound 3-27, 5-(4-n-Butoxyphenyl)-1-tetrazoleacetic acid], the inhibition at 1 µM was found to be 96%.

Compound `O=C(O)Cn1nnnc1-c1ccc(Oc2ccccc2)cc1` [Compound 3-25, 5-(4-Phenoxyphenyl)-1-tetrazoteacetic acid] had an inhibition at 1 µM of 94%.

In turn, `Cc1ccc(-c2nnnn2CC(=O)O)cc1` [Compound 3-6, 5-(4-Methylphenyl)-1-tetrazoleacetic acid] displayed an inhibition at 1 µM of 98%.

Compound `O=C(O)Cn1nnnc1-c1ccc(F)cc1` [Compound 3-3, 5-(4-Fluorophenyl)-1-tetrazoleacetic acid] gave an inhibition at 1 µM of 94%.

Still in this data set, the particulars now being: final concentration 5×10^-5 M (values without asterisk); DL-glycerine aldehyde 10 mM, pH 6.2, 30° C., 5 min.
For the compound `O=C(O)Cn1nnnc1-c1cccc(NC(=O)C(=O)O)c1` [Compound 3-12, 3'-(1-Carboxymethyl-tetrazol-5-yl)oxanilic acid], at 50 µM the inhibition was 97%.

Compound `COC(=O)Cn1nnnc1-c1ccc(C)cc1` [Compound 1-7, Methyl 5-(4-methylphenyl)-1-tetrazoleacetate] returned an inhibition at 50 µM of 59%.

`O=C(O)Cn1nnnc1-c1ccc(-c2nnnn2CC(=O)O)cc1` [Compound 3-13, 1,4-Bis(1-carboxymethyl-tetrazol-5-yl)benzene] yielded an inhibition at 50 µM of 94%.

Tested on in the next data set: not listed separately
The data set can be described thus: Acute toxicity test, oral (Experiment 3). To be noted: mouse, in vivo, suspended in 0.5% sodium carboxymethyl cellulose, male MCH mice, 14 days observation. An excerpt: The compound listed in Table 7 and suspended in 0.5% sodium carboxymethyl cellulose was orally administered to male MCH mice (6 weeks old: 5 animals per test group).
During the test, the mice were able to take food and water freely.
Turning to `O=C(O)Cn1nnnc1-c1cccc(NC(=O)C(=O)O)c1` [Compound 3-12, 3'-(1-Carboxymethyl-tetrazol-5-yl)oxanilic acid], the LD50 at 336 h is > 3000 mg/kg.

For `COC(=O)Cn1nnnc1-c1ccc(C)cc1` [Compound 1-7, Methyl 5-(4-methylphenyl)-1-tetrazoleacetate], the LD50 at 336 h was > 3000 mg/kg.

`O=C(O)Cn1nnnc1-c1ccccc1` [Compound 3-1, 5-Phenyl-1-tetrazoleacetic acid]: the median lethal dose (LD50) at 336 h is > 3000 mg/kg.

As to `Cc1ccc(-c2nnnn2CC(=O)O)cc1` [Compound 3-6, 5-(4-Methylphenyl)-1-tetrazoleacetic acid], the LD50 at 336 h is > 3000 mg/kg.

In a further data set the target is T1, aldose reductase. The data set can be described thus: Aldose reductase inhibition, IC50 determination (Experiment 2). In kind it is biochemical, rat (male SD rat crystalline lens). Conditions: calculated from inhibitions at three final concentrations; DL-glycerine aldehyde 10 mM, pH 6.2, 30° C. The method, then: Six-week-old male SD rats were killed under ether anesthesia and their crystalline lenses were immediately removed and stored at -80° C. […] The supernatant was dialyzed overnight against 0.05M sodium chloride, to produce an aldose reductase solution. All operations were conducted at 4° C. The enzyme solution was stored at -80° C.
as §1, with “Namely,” for “The activity of aldose reductase was determined according to a slight modification of the method of J. H. Kinoshita et al [J. Biol. Chem., 240, 877 (1965)]. Namely,”
as §2
In the same manner as Experiment 1, the inhibitions at final concentrations of 10^-6, 10^-7 and […] for the compound to be tested were calculated.
`O=C(O)Cn1nnnc1-c1cccc(NC(=O)C(=O)O)c1` [Compound 3-12, 3'-(1-Carboxymethyl-tetrazol-5-yl)oxanilic acid]: the concentration for half-maximal inhibition (IC50) is 31 nM.

`O=C(O)Cn1nnnc1-c1ccc(-c2ccccc2)cc1` [Compound 3-23, 5-(4-Biphenylyl)-1-tetrazoleacetic acid]: the IC50 is 22 nM.

For the compound `O=C(O)Cn1nnnc1-c1ccccc1` [Compound 3-1, 5-Phenyl-1-tetrazoleacetic acid], the IC50 is 32 nM.

Regarding `CCCCOc1ccc(-c2nnnn2CC(=O)O)cc1` [Compound 3-27, 5-(4-n-Butoxyphenyl)-1-tetrazoleacetic acid], the IC50 was 18 nM.

In the case of `O=C(O)Cn1nnnc1-c1ccc(Oc2ccccc2)cc1` [Compound 3-25, 5-(4-Phenoxyphenyl)-1-tetrazoteacetic acid], the IC50 was 28 nM.

Regarding `Cc1ccc(-c2nnnn2CC(=O)O)cc1` [Compound 3-6, 5-(4-Methylphenyl)-1-tetrazoleacetic acid], the IC50 was 25 nM.

In the case of `O=C(O)Cn1nnnc1-c1ccc(-c2nnnn2CC(=O)O)cc1` [Compound 3-13, 1,4-Bis(1-carboxymethyl-tetrazol-5-yl)benzene], the IC50 was 27 nM.

Regarding `O=C(O)Cn1nnnc1-c1ccc(F)cc1` [Compound 3-3, 5-(4-Fluorophenyl)-1-tetrazoleacetic acid], the IC50 is 42 nM.
